Results reported in patent US5856535A, “Aminosterol ester compounds” (priority 1996, dated 1999).
≈ marks a conversion by molar mass, not a printed value. Entries after “also recorded” stand apart in the source; their conditions may differ.

Assays:
[1] = inhibition of MSI-1436 binding; settings: 3H-MSI-1436 at 20 μg/mL
splenocytes = test: mitogen proliferation assay (splenocytes of treated mice, Con A); assay type: in vivo; settings: 10 mg/kg iv
Protocol: For the attached Tables, the mitogen proliferation assay was performed by treating mice (male or female) with various amounts of the aminosterol test compounds. Some time later (typically between 2 hours and 14 days), the mice are sacrificed and their spleens removed. Splenocytes are harvested and cultured in the presence of between 1-10 μg/ml of Con A (Sigma) for 48 hours. See James Morgan, "Monoclonal Antibody Production," Modern Methods in Pharmacology, pp. 29-67, eds., Spector and Back, 1988. This excerpt is entirely incorporated herein by reference. Cell proliferation is monitored either by direct cell counting or by measurement of the incorporation of radioactive thymidine.

melanoma cells = test: MTT assay for cell number; assay type: cell-based; settings: Tables III-V; read-out: MTT assay IC50
Protocol: In Table V, several aminosterol esters show efficacy in killing melanoma cells in the MTT assay.
The MTT assay for cell number is performed as follows. Cells are counted on a hemocytometer and diluted to a concentration of approx. 10,000 cells/well (55,000 cells/ml×0.18 ml). Cells are then plated in a 96 well microtiter plate and allowed to attach overnight. The next day, compounds are serially diluted from 1000 to 15.6 μg/ml and run in duplicate. 20 μl of each dilution are transferred to the pre-seeded microtiter plates. The final concentrations are 100 to 1.56 μg/ml. The plates are then incubated for 48 hours at 37° C. in 5% CO2. After 48 hours, MTT solution is added. The plate is re-incubated for 4 hours. Readings are done by removing all but 30 μl of media and MTT solution and dissolving the formazan crystals with DMSO. The formazan is dissolved by mixing on a rotating plate at low speed for about 30 minutes. Absorbance of converted dye is measured at a wavelength of 560 nm with background subtraction at 630 nm. The percent survival is determined by a comparison between the mean absorbance of the duplicate test lanes and the growth control.

[2] = tested on: Xenopus laevis Stages 59-60 tadpoles; test: tadpole assay; assay type: in vivo; settings: for vascular effect in tadpole (in words): about 60 minutes
HIV = test: inhibition of HIV replication in vitro (HIV Inhib.); assay type: cell-based
PBMC toxicity = settings: human
[3] = tested on: human ovarian carcinoma, SKOV3; test: anticancer activity against SKOV3; assay type: cell-based
[4] = tested on: human microvascular cells; test: endothelial cell cord formation assay (human microvascular cells, VEGF and bFGF, collagen matrix); assay type: cell-based
Description: Endothelial cells have the capacity in vitro to form tubular aggregates resembling capillaries in various early stages of formation. This conversion occurs under relatively specific conditions, in which essential growth factors along with an effective substratum are provided. It has been shown that both the interaction of growth factors with the endothelial cell and its attachment to a substratum activate the NHE. The activation of this exchanger is believed to be required for subsequent morphologic transformation of the endothelial cell into a multicellular tubular structure.
To assess the effect of compounds on the cord-like structures formed by human microvascular cells when plated in the presence of VEGF (Vascular Endothelial Growth Factor) and basic fibroblast growth factor on a collagen matrix, a standard cord formation assay was performed using the method described by Goto, et al., "Synergistic Effects of Vascular Endothelial Growth Factor and Basic Fibroblast Growth Factor on the Proliferation and Cord Formation of Bovine Capillary Endothelial Cells Within Collagen Gels," Laboratory Investigation, Vol. 69, No. 5, 1993, pp. 508-517. This article is entirely incorporated herein by reference.

[5] = tested on: chick embryo vitelline capillaries; test: chick embryo vitelline capillary regression assay; assay type: in vivo; settings: for effect on vitelline capillaries (in words): 3- to 5-day chick embryo
Protocol: Using the chick embryo vitelline capillaries assay, various aminosterol compounds were tested for their ability to induce capillary regression. Each compound was applied in 0.1 ml of 15% Ficol 400 and PBS onto the embryo, and vascular regression was assessed after 60 minutes. These tests were conducted by the chorioallantoic membrane anti-angiogenesis assay by applying the material to be assayed to 3 day old fertilized chick embryos in the manner described by Wilks et al., "Inhibition of Angiogenesis With Combination Angiostatic Steroids and Suramin," Radiation Biology, Vol. 60, Nos. 1/2, 1991, pp. 73-77, which article is entirely incorporated herein by reference.
The 3-day chick embryo consists of an embryonic disc from which numerous vessels emerge and return, forming a "figure 8"-shaped structure--the embryo in the center with vascular loops extending outward over both poles. […] Following a lag period of around 15 minutes, the constriction of continuity between capillary and secondary vessels, generally on the "venous" side, was observed. Continued pulsatile blood flow progressed, resulting in a "swelling" of the blind tube, followed by a pinching off of the remaining connection and formation of an enclosed vascular sac resembling a "blood island." This process progressed until only the largest vessels remained intact.

[6] = tested on: bacteria, fungi and protozoa; settings: cited from earlier work

Compound | % Inhib. of MSI-1436 Binding @ 100 μg/mL [1] | Rel. potency to MSI-1436, Mitogen Proliferation Assay (splenocytes) | IC50 (melanoma cells) | vascular effect in tadpole (in words) ([2]; 10 μg/ml where stated) | % Inhib of HIV (HIV; 140 nM, 0.14 µM) | inhibition at 0.14 µM (HIV; Human immunodeficiency virus 1, 140 nM, read-out: % Inhib of HIV) | cytotoxicity at 14 µM (PBMC toxicity) | anticancer activity (in words) [3] | time to shedding of larval skin ([2]; 10 μg/ml) | effect on embryonic epithelium / epithelial shedding (in words) ([2]; 10 μg/ml where stated) | minimal effective concentration ([4]; Homo sapiens, Endothelial cell, text to the table, read-out: concentration at which cord formation is inhibited) | effect on cell viability or proliferation (in words) ([4]; at these concentrations) | effect on vitelline capillaries (in words) [5] | effect on vitelline capillaries (in words) ([5]; listed as squalamine) | hemorrhage, hemolysis and heartbeat of embryo (in words) ([5]; 3-day chick embryo) | unaffected functions in tadpole (in words) ([2]; 10 μg/ml) | antibiotic activity (in words) [6]
CC(C)[C@@H](CC[C@@H](C)[C@H]1CC[C@H]2[C@@H]3[C@H](O)C[C@H]4C[C@@H](NCCCNCCCCNCCCN)CC[C@]4(C)[C@H]3CC[C@]12C)OS(=O)(=O)O [Compound 1436, reference compound] | 82% | 1 | 7.8 µg/mL (≈ 11.4 µM) | common vascular occlusive effect | 78% | 76% | 0% |  |  |  |  |  |  |  |  |  | 
CC(C)C(CO)(CC[C@@H](C)[C@H]1CC[C@H]2[C@@H]3[C@H](O)C[C@H]4C[C@@H](NCCCNCCCCN)CC[C@]4(C)[C@H]3CC[C@]12C)OS(=O)(=O)O (stereo partly drawn) [Compound 1437] |  |  |  |  |  |  |  | exhibit anticancer activity | ≤ 60 min | dramatic effect on the embryonic epithelium covering the tadpole tail; also recorded: larval skin was observed to shed off in a sheet |  |  |  |  |  |  | 
CC(C)[C@@H](CC[C@@H](C)[C@H]1CC[C@H]2[C@@H]3[C@H](O)C[C@H]4C[C@@H](NCCCNCCCCN)CC[C@]4(C)[C@H]3CC[C@]12C)OS(=O)(=O)O [Squalamine, squalamine, reference compound] |  |  |  | blood flow through the capillaries of the tail shut down; also recorded: enhanced regression of the most distal aspects of the tail; also recorded: common vascular occlusive effect |  |  |  |  |  |  | ~0.1 µg/mL | does not appear to profoundly affect cell viability or proliferation | disrupt vitelline capillaries in 3- to 5-day chick embryos | dramatic and rapid effect on capillary vessel integrity; also recorded: especially active | embryonic heart continued to beat vigorously; also recorded: No hemorrhage was seen; also recorded: absence of hemolysis | continued heartbeat; also recorded: unaltered blood flow through the fine capillaries of the hands and feet | broad-spectrum antibiotic, killing bacteria, fungi and protozoa
